Measurements: patent US20050080037A1, “Methods for treating acute and overuse sprain and strain using hyaluronic acid” (priority 2003, published 2005)

System: patients with first or second degree lateral ankle sprain
Assay: Efficacy of HA on ankle sprain following periarticular administration (clinical study 1: HA; study 2: celecoxib or naproxen)
Format: in vivo, human
Conditions: for Percentage increase in Patient's Global Assessment (improved by one or more grades) / Mean Patient's Satisfaction Assessment (10 point scale) / Mean Physician's Satisfaction Assessment (10 point scale): study 2, oral BID for 7 days; for Mean VAS Weight-bearing (100 mm): study 2, oral BID for 7 days (celecoxib 200 mg, naproxen 500 mg)
Method: The study was conducted in accordance with good clinical practice and in compliance with the requirement of the International Conference on Harmonization and Declaration of Helsinki. On Day 1 (within 48 hours of the injury), the patients were examined to assess whether they meet all the inclusion criteria and none of the exclusion criteria after signing the informed consent. The inclusion criteria were: 18 years and older, first or second degree lateral ankle […] within 48 hours of administration of study drug, reported moderate (45-60 mm) to severe (>60 mm) ankle pain on full weight bearing on the Patient's Assessment of Ankle Pain using a 100 mm Visual Analogue Scale (VAS). This scale was available for the duration of the clinical follow-up. Patients with bilateral ankle […] injury, third-degree […], or previous ankle […] within 6 months were excluded. Also excluded were patients who had recently used anti-inflammatory drugs, muscle relaxants, or certain classes of psychotropic medications that could confound the results. In addition, patients with sensitivity or allergy to NSAIDs or sulfonamides as well as patients with a history of serious GI, renal, or hepatic disease were excluded. Patients with other rheumatic diseases or a history of drug or alcohol abuse were also excluded. After enrollment, patients received periarticular injections of HA (study 1) or an inhibitor of cyclooxygenase-2 or a NSAID (study 2). […] Eight to ten mg of HA (0.8-1.0 ml of HA) was injected, without anesthetic (study 1). Oral treatments with an inhibitor of cyclooxygenase-2, celecoxib 200 mg BID, or with a NSAID, naproxen 500 mg BID, were done for 7 days (study 2). Clinical assessments were performed at baseline, and then before treatment on Day 4 and Day 8 (end of study). […] In Table 1, 7 patients received HA. In Table 2, 199 patients received celecoxib and 198 patients received naproxen.

Row | Compound | Percentage increase in Patient's Global Assessment (improved by one or more grades) (at day 4) | Mean VAS Weight-bearing (100 mm) (at day 4) | Mean Patient's Satisfaction Assessment (10 point scale) (at day 8) | Mean Physician's Satisfaction Assessment (10 point scale) (at day 8) | Percentage increase in Patient's Global Assessment (improved by one or more grades) (at day 8) | Mean VAS Weight-bearing (100 mm) (at day 8)
1 | Cc1ccc(-c2cc(C(F)(F)F)nn2-c2ccc(S(N)(=O)=O)cc2)cc1 [Celecoxib, celecoxib] | 71% | 31.9 mm | 8.8 | 8.7 | 89% | 15.0 mm
2 | COc1ccc2cc([C@H](C)C(=O)O)ccc2c1 [Naproxen, naproxen] | 72% | 29.0 mm | 8.7 | 8.6 | 90% | 15.3 mm
